Numbered stars: 1 amine (or outer) side, 2 acyl side, 3 side chain; on linkers, the order of the positions; unused ones are H or OH. Bridge positions count the residues as written; N and C are the ends. Side chains are listed from the residue outwards. Peptide text beside a SMILES is read from it. * marks the point of attachment. C20 diacid = O=C(O)CCCCCCCCCCCCCCCCCCC(=O)*; γGlu = O=C(O)[C@H](CCC(=O)[*:2])N[*:1]; AEEA = NCCOCCOCC(=O)O
What was measured:
[1] = molecular target: T1, human amylin receptor (amylin 3(a) receptor: human calcitonin receptor + RAMP-3) (Homo sapiens, UniProt O60896+P30988); assay: Assay (II)a functional assay, human amylin receptor (CRE luciferase, BHK cells); assay type: cell-based
T1 construct: expressed in transfected cells
T1 sequence (P30988 25-474): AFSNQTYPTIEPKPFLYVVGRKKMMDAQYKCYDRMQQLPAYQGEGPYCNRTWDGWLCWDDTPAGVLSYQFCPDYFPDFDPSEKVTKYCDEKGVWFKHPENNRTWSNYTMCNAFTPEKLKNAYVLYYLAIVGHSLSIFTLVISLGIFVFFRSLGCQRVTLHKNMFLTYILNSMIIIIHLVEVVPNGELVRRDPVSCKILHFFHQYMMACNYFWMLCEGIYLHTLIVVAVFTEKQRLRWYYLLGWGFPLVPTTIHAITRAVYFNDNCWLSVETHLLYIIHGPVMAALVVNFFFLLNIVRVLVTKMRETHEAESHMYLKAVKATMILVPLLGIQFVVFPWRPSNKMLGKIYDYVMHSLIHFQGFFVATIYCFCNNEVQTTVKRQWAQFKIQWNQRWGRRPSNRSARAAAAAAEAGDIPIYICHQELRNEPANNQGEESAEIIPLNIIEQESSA
T1 sequence (O60896 24-148 partner): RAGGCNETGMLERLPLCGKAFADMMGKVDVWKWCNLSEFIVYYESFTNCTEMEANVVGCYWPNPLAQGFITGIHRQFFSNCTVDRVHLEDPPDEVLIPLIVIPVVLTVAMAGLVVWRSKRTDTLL

rat amylin receptor = molecular target: T2, rat amylin receptor (Rattus norvegicus, UniProt P32214+Q9JJ73); assay: Assay (VI) binding to the rat amylin receptor; conditions: rCTR bind IC50 divided by rAmylin-R bind IC50
T2 construct: expressed in transfected cells; host or cells: BHK tk'ts 13 (transient, FuGENE 6), membranes
T2 sequence (P32214 25-479 isoform P32214-2 limits assumed): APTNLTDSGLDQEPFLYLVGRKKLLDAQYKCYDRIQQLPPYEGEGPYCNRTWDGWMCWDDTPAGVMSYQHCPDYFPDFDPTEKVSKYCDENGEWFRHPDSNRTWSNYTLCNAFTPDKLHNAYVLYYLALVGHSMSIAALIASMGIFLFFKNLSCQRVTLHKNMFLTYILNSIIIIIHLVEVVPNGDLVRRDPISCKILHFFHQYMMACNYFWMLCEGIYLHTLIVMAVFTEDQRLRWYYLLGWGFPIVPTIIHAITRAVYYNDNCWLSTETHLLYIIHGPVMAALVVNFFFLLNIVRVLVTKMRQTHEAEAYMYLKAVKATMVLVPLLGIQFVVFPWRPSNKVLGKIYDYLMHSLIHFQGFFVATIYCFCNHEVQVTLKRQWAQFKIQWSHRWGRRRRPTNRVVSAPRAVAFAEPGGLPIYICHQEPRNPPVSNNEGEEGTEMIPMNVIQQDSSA
T2 sequence (Q9JJ73 23-147 partner): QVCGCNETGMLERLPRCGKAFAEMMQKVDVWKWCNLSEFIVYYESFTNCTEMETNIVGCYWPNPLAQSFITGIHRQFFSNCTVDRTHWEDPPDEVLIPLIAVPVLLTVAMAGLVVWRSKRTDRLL
Method: Assay (VI)—Determination of the Binding to the Rat Amylin Receptor
The assay was performed as described above (Assay (V)—Determination of binding to the human amylin receptor) with the exception that we used membranes prepared from BHK tk'ts 13 cells that were transiently transfected with the rat calcitonin receptor rat RAMP 3 at an equimolar ratio […]. The BHK tk'ts 13 cells were transiently transfected with rat calcitonin receptor using FuGENE® 6 (Roche), according to the manufacturer's recommendations. Cells were grown in DMEM with 10% FBS and 1% Pen/Strep. Approximately 48 hours after transfection, the cells were harvested and membranes were prepared.

human amylin receptor = molecular target: T3, human amylin receptor (Homo sapiens, UniProt O60896+P30988); assay: Assay (V) binding to the human amylin receptor (SPA, 125I-rat amylin); conditions: human binding ratio, included for comparison
T3 construct: expressed in transfected cells
T3 sequence (P30988 25-474): T1 sequence (P30988 25-474)
T3 sequence (O60896 24-148 partner): T1 sequence (O60896 24-148 partner)
Procedure, shortened: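 IC50, taken as receptor affinity, came from one-site binding competition analysis of scintillation proximity counts. Amylin 3(a)/CRE-luc cell membranes (35 ng/μL final) were mixed with SPA beads (0.05 mg/well) in 50 mM Hepes pH 7.4 containing CaCl2, MgCl2, 0.1% OA and 0.02% Tween20.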

[2] = Table 6, human functional selectivity (hCTR EC50 / hAmylin-R EC50)

Structure (SMILES) | Ratio hCT/hAmylin funct. [1, 2] | Ratio rCT/rAmylin binding (rat amylin receptor; Table 7b) | Ratio rCT/rAmylin binding (rat amylin receptor) | Ratio hCT/hAmylin funct. ([1]; Table 6i, hCTR funct. EC50 / hAmylin-R funct. EC50) | Ratio hCT/hAmylin funct. ([1]; hCTR funct. EC50 divided by hAmylin-R funct. EC50) | Ratio hCT/hAmylin binding (human amylin receptor)
CC(C)C[C@H](NC(=O)[C@H](CCCNC(=N)N)NC(=O)[C@H](CCC(N)=O)NC(=O)[C@@H](NC(=O)[C@H](C)NC(=O)[C@@H]1CSSC[C@H](NC(=O)[C@H](CCCCN)NC(=O)CC[C@H](NC(=O)CCCCCCCCCCCCCCCCCCC(=O)O)C(=O)O)C(=O)N[C@@H](CC(N)=O)C(=O)N[C@@H]([C@@H](C)O)C(=O)N[C@@H](C)C(=O)N[C@@H]([C@@H](C)O)C(=O)N1)[C@@H](C)O)C(=O)N[C@@H](C)C(=O)N[C@@H](CCC(=O)O)C(=O)N[C@@H](Cc1ccccc1)C(=O)N[C@@H](CC(C)C)C(=O)N[C@@H](CCCNC(=N)N)C(=O)N[C@@H](Cc1c[nH]cn1)C(=O)N[C@@H](CO)C(=O)N[C@@H](CO)C(=O)N1CCC[C@H]1C(=O)N[C@@H](CC(N)=O)C(=O)N[C@@H](Cc1ccccc1)C(=O)NCC(=O)N[C@@H](C)C(=O)N1CCC[C@H]1C(=O)N[C@@H](CC(C)C)C(=O)N[C@@H](CO)C(=O)N[C@@H](CO)C(=O)N[C@H](C(=O)N[C@@H](CC(N)=O)C(=O)N[C@H](C(=O)NCC(=O)N[C@@H](CO)C(=O)N[C@@H](CC(N)=O)C(=O)N[C@H](C(=O)N[C@@H](Cc1ccc(O)cc1)C(N)=O)[C@@H](C)O)C(C)C)[C@@H](C)O [Example 7] ({C20 diacid-γGlu}-KCNTATCATQRLAEFLRHSSPNFGAPLSSTNVGSNTY-NH2; disulfide 2-7) | 4.5 | 42.0 | 42.0 | 4.5 | – | –
CC[C@H](C)[C@H](NC(=O)[C@@H]1CCCN1C(=O)CNC(=O)[C@H](Cc1ccccc1)NC(=O)[C@H](CC(N)=O)NC(=O)[C@@H]1CCCN1C(=O)[C@H](CO)NC(=O)[C@H](CO)NC(=O)[C@H](Cc1c[nH]cn1)NC(=O)[C@H](CCCNC(=N)N)NC(=O)[C@H](CC(C)C)NC(=O)[C@H](Cc1ccccc1)NC(=O)[C@H](CCC(=O)O)NC(=O)[C@H](C)NC(=O)[C@H](CC(C)C)NC(=O)[C@H](CCCNC(=N)N)NC(=O)[C@H](CCC(N)=O)NC(=O)[C@@H](NC(=O)[C@H](C)NC(=O)[C@@H]1CSSC[C@H](NC(=O)[C@H](CCCCN)NC(=O)CC[C@H](NC(=O)CCCCCCCCCCCCCCCCCCC(=O)O)C(=O)O)C(=O)N[C@@H](CC(N)=O)C(=O)N[C@@H]([C@@H](C)O)C(=O)N[C@@H](C)C(=O)N[C@@H]([C@@H](C)O)C(=O)N1)[C@@H](C)O)C(=O)N[C@@H](CC(C)C)C(=O)N1CCC[C@H]1C(=O)N1CCC[C@H]1C(=O)N[C@H](C(=O)N[C@@H](CC(N)=O)C(=O)N[C@H](C(=O)NCC(=O)N[C@@H](CO)C(=O)N[C@@H](CC(N)=O)C(=O)N[C@H](C(=O)N1CCC[C@H]1C(N)=O)[C@@H](C)O)C(C)C)[C@@H](C)O [Example 4] ({C20 diacid-γGlu}-KCNTATCATQRLAEFLRHSSPNFGPILPPTNVGSNTP-NH2; disulfide 2-7) | 1.2 | – | 3.1 | – | 1.2 | 2.1

Now from value to molecule:

Ratio hCT/hAmylin funct. [1, 2] | Ratio rCT/rAmylin binding (rat amylin receptor; Table 7b) | Ratio rCT/rAmylin binding (rat amylin receptor) | Ratio hCT/hAmylin funct. ([1]; Table 6i, hCTR funct. EC50 / hAmylin-R funct. EC50) | Ratio hCT/hAmylin funct. ([1]; hCTR funct. EC50 divided by hAmylin-R funct. EC50) | Ratio hCT/hAmylin binding (human amylin receptor) | Structure (SMILES)
3.9 | 62.0 | 62.0 | – | – | – | CC[C@H](C)[C@H](NC(=O)[C@H](C)NC(=O)CNC(=O)[C@H](Cc1ccccc1)NC(=O)[C@H](CC(N)=O)NC(=O)[C@@H]1CCCN1C(=O)[C@H](CO)NC(=O)[C@H](CO)NC(=O)[C@H](Cc1c[nH]cn1)NC(=O)[C@H](CCCNC(=N)N)NC(=O)[C@H](CC(C)C)NC(=O)[C@H](Cc1ccccc1)NC(=O)[C@H](CC(=O)O)NC(=O)[C@H](C)NC(=O)[C@H](CC(C)C)NC(=O)[C@H](CCCNC(=N)N)NC(=O)[C@H](CCC(N)=O)NC(=O)[C@@H](NC(=O)[C@H](C)NC(=O)[C@@H]1CSSC[C@H](NC(=O)[C@@H](N)CCCCNC(=O)CC[C@H](NC(=O)CCCCCCCCCCCCCCCCCCC(=O)O)C(=O)O)C(=O)N[C@@H](CC(N)=O)C(=O)N[C@@H]([C@@H](C)O)C(=O)N[C@@H](C)C(=O)N[C@@H]([C@@H](C)O)C(=O)N1)[C@@H](C)O)C(=O)N1CCC[C@H]1C(=O)N[C@@H](CO)C(=O)N[C@@H](CO)C(=O)N[C@H](C(=O)N[C@@H](CC(N)=O)C(=O)N[C@H](C(=O)NCC(=O)N1CCC[C@H]1C(=O)N[C@@H](CCC(=O)O)C(=O)N[C@H](C(=O)N[C@@H](Cc1ccc(O)cc1)C(N)=O)[C@@H](C)O)C(C)C)[C@@H](C)O [Example 123] (H-K([γGlu-C20 diacid])CNTATCATQRLADFLRHSSPNFGAIPSSTNVGPETY-NH2; disulfide 2-7 (inferred); N-terminus and C-terminus assumed)
3.6 | – | 6.4 | – | – | 3.6 | CC[C@H](C)[C@H](NC(=O)[C@H](C)NC(=O)CNC(=O)[C@H](Cc1ccccc1)NC(=O)[C@H](CC(N)=O)NC(=O)[C@@H]1CCCN1C(=O)[C@H](CO)NC(=O)[C@H](CO)NC(=O)[C@H](Cc1c[nH]cn1)NC(=O)[C@H](CCCNC(=N)N)NC(=O)[C@H](CC(C)C)NC(=O)[C@H](Cc1ccccc1)NC(=O)[C@H](CCC(=O)O)NC(=O)[C@H](C)NC(=O)[C@H](CC(C)C)NC(=O)[C@H](CCCNC(=N)N)NC(=O)[C@H](CCC(N)=O)NC(=O)[C@@H](NC(=O)[C@H](C)NC(=O)[C@@H]1CSSC[C@H](NC(=O)[C@H](CCCCN)NC(=O)COCCOCCNC(=O)COCCOCCNC(=O)CC[C@H](NC(=O)CCCCCCCCCCCCCCCCCCC(=O)O)C(=O)O)C(=O)N[C@@H](CC(N)=O)C(=O)N[C@@H]([C@@H](C)O)C(=O)N[C@@H](C)C(=O)N[C@@H]([C@@H](C)O)C(=O)N1)[C@@H](C)O)C(=O)N1CCC[C@H]1C(=O)N[C@@H](CO)C(=O)N[C@@H](CO)C(=O)N[C@H](C(=O)N[C@@H](CC(N)=O)C(=O)N[C@H](C(=O)NCC(=O)N[C@@H](CO)C(=O)N[C@@H](CC(N)=O)C(=O)N[C@H](C(=O)N1CCC[C@H]1C(N)=O)[C@@H](C)O)C(C)C)[C@@H](C)O [Example 20] ({C20 diacid-γGlu-AEEA-AEEA}-KCNTATCATQRLAEFLRHSSPNFGAIPSSTNVGSNTP-NH2; disulfide 2-7)
0.8 | – | 3.0 | – | – | 1.2 | CC[C@H](C)[C@H](NC(=O)[C@H](C)NC(=O)CNC(=O)[C@H](Cc1ccccc1)NC(=O)[C@H](CC(N)=O)NC(=O)[C@@H]1CCCN1C(=O)[C@H](CO)NC(=O)[C@H](CO)NC(=O)[C@H](Cc1c[nH]cn1)NC(=O)[C@H](CCCNC(=N)N)NC(=O)[C@H](CC(C)C)NC(=O)[C@H](Cc1ccccc1)NC(=O)[C@H](Cc1c[nH]cn1)NC(=O)[C@H](C)NC(=O)[C@H](CC(C)C)NC(=O)[C@H](CCCNC(=N)N)NC(=O)[C@H](CCC(N)=O)NC(=O)[C@@H](NC(=O)[C@H](C)NC(=O)[C@@H]1CSSC[C@H](NC(=O)[C@@H](N)CCCCNC(=O)CC[C@H](NC(=O)CCCCCCCCCCCCCCCCCCC(=O)O)C(=O)O)C(=O)N[C@@H](CC(N)=O)C(=O)N[C@@H]([C@@H](C)O)C(=O)N[C@@H](C)C(=O)N[C@@H]([C@@H](C)O)C(=O)N1)[C@@H](C)O)C(=O)N1CCC[C@H]1C(=O)N[C@@H](CO)C(=O)N[C@@H](CO)C(=O)N[C@H](C(=O)N[C@@H](CC(N)=O)C(=O)N[C@H](C(=O)NCC(=O)N1CCC[C@H]1C(=O)N[C@@H](CC(N)=O)C(=O)N[C@H](C(=O)N1CCC[C@H]1C(N)=O)[C@@H](C)O)C(C)C)[C@@H](C)O [Example 115] (H-K([γGlu-C20 diacid])CNTATCATQRLAHFLRHSSPNFGAIPSSTNVGPNTP-NH2; disulfide 2-7 (inferred); N-terminus and C-terminus assumed)

From patent publication US8575091B1, “Amylin analogues and pharmaceutical compositions thereof” (Novo Nordisk A/S, priority 2012, dated 2013)
